Source: patent US9416141B2 (University of Washington through its Center for …, priority 2012, dated 2016)
pEC50: −log10 of the molar value. Counter-ions that a name gives are not always drawn. Like-named read-outs stand apart in the source and are kept apart here.

Tested on: hair cells
Test: Hair cell toxicity assay in zebrafish (neomycin-induced hair cell death, DASPEI staining of neuromasts)
Assay type: in vivo
Details: for Emax at 2.8 µM: maximum observed @ 2.8 μM test compound; for pEC50: zebrafish larvae 5-7 dpf, 1 h pre-treatment, then 200 micromolar neomycin + test compound 30 min, read-out: HC50 (concentration that would produce 50% hair cell survival); for Emax at 25 µM: maximum observed @ 25 μM test compound; for Emax at 8.3 µM: maximum observed @ 8.3 μM test compound
Experimental: Zebrafish are bred and newly fertilized embryos are collected the week prior and raised at 28.5° C. in petri dishes containing embryo medium. Newly hatched free-swimming larvae are fed paramecium and dry fish food at 4 days post fertilization (dpf) with lights on. For treatment, fish 5-7 dpf are transferred to cell culture baskets and place within a well of a 6-well plate containing 7 milliliters of 1× embryo medium. Typically, tests are done with ten fish per basket but work well with up to 50 fish. All treatment and wash volumes are 7 milliliters. • 1. Fish are pre-treated with test compound for 1 hour. […] Treat with 200 micromolar neomycin (neomycin sulfate, Sigma, St. Louis, Mo., catalog #N1142)+test compound for 30 minutes. • 3. Rinse fish briefly 4 times in embryo medium and add 700 μl of 0.05% DASPEI (2-{4-(dimethylamino)styryl}-N-ethylpyridinium iodide, Molecular Probes, Eugene, Oreg.) and allowed to stain for 15 minutes. • 4. Rinse twice in embryo medium and add 350 μl MS222 (0.55 ug/ml final concentration, 3-aminobenzoic acid ethyl ester, methansulfoneate salt, Sigma, St. Louis, Mo.) to anesthetize. • 5. View with epifluorescence dissecting microscope equipped with a DAPSEI filter set (excitation […], Chroma Technologies, Brattleboro, Vt.). For assessment of initial dose response curves, fish are transferred to wide depression slide with wide-bore pipette. The DASPEI staining of ten neuromasts (SO1, SO2, IO1, IO2, IO3, IO4, M2, MI1, MI2 and O2) on one side of an animal are evaluated. Each neuromast is scored for presence of DASPEI staining (score=2), reduced DASPEI staining (score=1) or absence of DASPEI staining (score=0). Total scores for an animal are tabulated, to give a composite score that can range from 0 to 20. Average scores and standard deviations are calculated for animals in each treatment group. Scores are normalized to control group (vehicle only, no drug, no neomycin) and expressed as % hair cell survival. HCmax is the maximum protection (hair cell survival) observed. • 6. If at least 50% hair cells survive, the HC50 (concentration that would produce 50% hair cell survival) is calculated as a linear extrapolation from the nearest concentrations of protective drug that produce hair cell survival below and above 50%. If less than 50% hair cells survive, the HC50 is not determined. 1× embryo media (standard lab EM): • 1 mM MgSO4, • 0.15 mM KH2PO4, • 0.05 mM Na2HPO4, • 1 mM CaCl2, • 0.5 mM KCl • 15 mM NaCl • 0.7 mM NaHCO3

[1] = Danio rerio, 200 micromolar neomycin, read-out: Max HC Protection (HCmax, % hair cell survival)

Compound	pEC50 (Danio rerio)	Emax at 25 µM [1] [%]	other results
CC(C)NC(=O)CCCN1CCc2c(sc(NC(=O)Nc3ccc(Cl)cc3)c2C(N)=O)C1 [Example 25, 2-[3-(4-Chlorophenyl)ureido]-6-[4-(isopropylamino)-4-oxobutyl]-4,5,6,7-tetrahydrothieno[2,3-c]pyridine-3-carboxamide hydrochloride]	5.00 to 6.00		Emax at 2.8 µM [1]: 57%
NC(=O)c1c(NC(=O)Nc2ccc(Cl)cc2)sc2c1CC1CCC2N1 (racemic) [Example 124, (+/−)-2-[3-(4-chlorophenyl)ureido]-5,6,7,8-tetrahydro-4H-5,8-epiminocyclohepta[b]thiophene-3-carboxamide hydrochloride]			pEC50: > 6.00
CC(C)C(C)N1CCc2c(sc(NC(=O)Nc3ccc(Cl)cc3)c2C(N)=O)C1 (racemic) [Example 48, (+/−)-2-[3-(4-Chlorophenyl)ureido]-6-(3-methylbutan-2-yl)-4,5,6,7-tetrahydrothieno[2,3-c]pyridine-3-carboxamide hydrochloride]	5.00 to 6.00	72	
C[N+]1(C)C2CCC1c1sc(NC(=O)Nc3ccc(Cl)cc3)c(C(N)=O)c1C2 (racemic) [Example 188, (+/−)-3-Carbamoyl-2-[3-(4-chlorophenyl)ureido]-9,9-dimethyl-5,6,7,8-tetrahydro-4H-thienocyclohepten-5,8-iminium iodide]	5.00 to 6.00	59	
CC[N+]1(CC2CCCCC2)CCc2c(sc(NC(=O)Nc3ccc(Cl)cc3)c2C(N)=O)C1 (stereo not drawn) [Example 195, 3-Carbamoyl-2-[3-(4-chlorophenyl)ureido]-6-(cyclohexylmethyl)-6-ethyl-4,5,6,7-tetrahydrothieno[2,3-c]pyridin-6-ium trifluoroacetate]	> 6.00		Emax at 0.9 µM (Danio rerio, maximum observed @ 0.9 μM test compound, 200 micromolar neomycin, read-out: Max HC Protection (HCmax, % hair cell survival)): 74%
CC(C)NC(=O)CC[N+]1(C)CCc2c(sc(NC(=O)Nc3ccc(Cl)cc3)c2C(N)=O)C1 (stereo not drawn) [Example 164, 3-Carbamoyl-2-[3-(4-chlorophenyl)ureido]-6-[3-(isopropylamino)-3-oxopropyl]-6-methyl-4,5,6,7-tetrahydrothieno[2,3-c]pyridin-6-ium trifluoroacetate]	5.00 to 6.00		Emax at 2.8 µM [1]: 60%
CCN1CCc2c(sc(NC(=O)Nc3ccc(C(=O)c4ccccc4)cc3)c2C(N)=O)C1 [Example 88, 2-[3-(4-Benzoylphenyl)ureido]-6-ethyl-4,5,6,7-tetrahydrothieno[2,3-c]pyridine-3-carboxamide]	5.00 to 6.00	88	
CCOC(=O)c1c(Nc2c(Nc3ccc(Cl)cc3)c(=O)c2=O)sc2c1CCN(CC)C2 [Example 110, Ethyl 2-({2-[(4-chlorophenyl)amino]-3,4-dioxocyclobut-1-en-1-yl}amino)-6-ethyl-4,5,6,7-tetrahydrothieno[2,3-c]pyridine-3-carboxylate hydrochloride]	< 5.00	69	
CC[N+]1(C)CCc2c(sc(NC(=O)Nc3ccc(C#N)cc3)c2C(N)=O)C1 (stereo not drawn) [Example 150, 3-Carbamoyl-2-[3-(4-cyanophenyl)ureido]-6-ethyl-6-methyl-4,5,6,7-tetrahydrothieno[2,3-c]pyridin-6-ium iodide]		43	
CC[N+]1(CC(C)C)CCc2c(sc(NC(=O)Nc3ccc(Cl)cc3)c2C(N)=O)C1 (stereo not drawn) [Example 200, 3-Carbamoyl-2-[3-(4-chlorophenyl)ureido]-6-ethyl-6-isobutyl-4,5,6,7-tetrahydrothieno[2,3-c]pyridin-6-ium chloride]	> 6.00		Emax at 2.8 µM [1]: 97%
Cc1c(CN2CCOCC2)sc(NC(=O)Nc2ccc(Cl)cc2)c1C(N)=O [Example 86, 2-[3-(4-Chlorophenyl)ureido]-4-methyl-5-(morpholinomethyl)thiophene-3-carboxamide hydrochloride]	5.00 to 6.00		Emax at 8.3 µM [1]: 51%
CCN1CCc2c(sc(NC(=O)Nc3ccc(Cl)c(C)c3)c2C(N)=O)C1 [Example 64, 2-[3-(4-chloro-3-methylphenyl)ureido]-6-ethyl-4,5,6,7-tetrahydrothieno[2,3-c]pyridine-3-carboxamide hydrochloride]	5.00 to 6.00	77	
CC[N+]1(C)CCc2c(sc(NC(=O)Nc3ccc4cc(F)ccc4c3)c2C(N)=O)C1 (stereo not drawn) [Example 180, 3-Carbamoyl-6-ethyl-2-[3-(6-fluoronaphthalen-2-yl)ureido]-6-methyl-4,5,6,7-tetrahydrothieno[2,3-c]pyridin-6-ium iodide]	5.00 to 6.00	102	
CN(C)C(=O)CCN1CCc2c(sc(NC(=O)Nc3ccc(Cl)cc3)c2C(N)=O)C1 [Example 53, 2-[3-(4-Chlorophenyl)ureido]-6-[3-(dimethylamino)-3-oxopropyl]-4,5,6,7-tetrahydrothieno[2,3-c]pyridine-3-carboxamide hydrochloride]	5.00 to 6.00	103	
CC(C)C(C)[N+]1(C)CCc2c(sc(NC(=O)Nc3ccc(Cl)cc3)c2C(N)=O)C1 (racemic) [Example 204, (+/−)-3-Carbamoyl-2-[3-(4-chlorophenyl)ureido]-6-methyl-6-(3-methylbutan-2-yl)-4,5,6,7-tetrahydrothieno[2,3-c]pyridin-6-ium chloride]			Emax at 8.3 µM [1]: 77%
CCN1CCc2c(sc(NC(=O)Nc3ccc(Cl)cc3)c2C#N)C1 [Example 87, 1-(4-Chlorophenyl)-3-(3-cyano-6-ethyl-4,5,6,7-tetrahydrothieno[2,3-c]pyridin-2-yl)urea]		11	
CCN1CCc2c(sc(NC(=O)Nc3cccc(F)c3)c2C(N)=O)C1 [Example 71, 6-Ethyl-2-[3-(3-fluorophenyl)ureido]-4,5,6,7-tetrahydrothieno[2,3-c]pyridine-3-carboxamide hydrochloride]		45	
CC[N+]1(CC2CCC2)CCc2c(sc(NC(=O)Nc3ccc(Cl)cc3)c2C(N)=O)C1 (stereo not drawn) [Example 190, 3-carbamoyl-2-[3-(4-chlorophenyl)ureido]-6-(cyclobutylmethyl)-6-ethyl-4,5,6,7-tetrahydrothieno[2,3-c]pyridin-6-ium chloride]	> 6.00		Emax at 2.8 µM [1]: 100%
CCN1CCc2c(sc(NC(=O)NCc3cccc(Cl)c3)c2C(N)=O)C1 [Example 75, 2-[3-(3-Chlorobenzyl)ureido]-6-ethyl-4,5,6,7-tetrahydrothieno[2,3-c]pyridine-3-carboxamide hydrochloride]		24	
C[N+]1(C)CCCC12CCc1c(sc(NC(=O)Nc3ccc(Cl)cc3)c1C(N)=O)C2 (racemic) [Example 186, (+/−)-3-Carbamoyl-2-[3-(4-chlorophenyl)ureido]-1′,1′-dimethyl-5,7-dihydro-4H-spiro(benzo[b]thiophene-6,2′-pyrrolidin)-1′-ium trifluoroacetate]	> 6.00		Emax at 2.8 µM [1]: 65%
CN1C2CCC1c1sc(NC(=O)Nc3ccc(Cl)cc3)c(C(N)=O)c1C2 (single isomer, unassigned; (+)) [Example 128, (+)-2-[3-(4-Chlorophenyl)ureido]-9-methyl-5,6,7,8-tetrahydro-4H-5,8-epiminocyclohepta[b]thiophene-3-carboxamide hydrochloride]			pEC50 (hydrochloride): > 6.00
NC(=O)c1c(NC(=O)Nc2ccc(Cl)cc2)sc2c1CC1CCC2N1 (single isomer, unassigned; (+)) [Example 130, (+)-2-[3-(4-Chlorophenyl)ureido]-5,6,7,8-tetrahydro-4H-5,8-epiminocyclohepta[b]thiophene-3-carboxamide hydrochloride]			Emax at 2.8 µM [1]: 40%
CC(C)(C)OC(=O)NCCN1CCc2c(sc(NC(=O)Nc3ccc(Cl)cc3)c2C(N)=O)C1 [Example 10, tert-Butyl 2-{3-carbamoyl-2-[3-(4-chlorophenyl)ureido]-4,5-dihydrothieno[2,3-c]pyridin-6(7H)-yl}ethylcarbamate]			Emax at 8.3 µM [1]: 13%
C[N+]1(CC(F)(F)F)CCc2c(sc(NC(=O)Nc3ccc(Cl)cc3)c2C(N)=O)C1 (stereo not drawn) [Example 192, 3-Carbamoyl-2-[3-(4-chlorophenyl)ureido]-6-methyl-6-(2,2,2-trifluoroethyl)-4,5,6,7-tetrahydrothieno[2,3-c]pyridin-6-ium iodide]	> 6.00	88	
